In patent publication US11590185B2, “Antioxidant composition comprising Sargassum serratifolium extract or fraction thereof as active ingredient” (PUKYONG NATIONAL UNIVERSITY INDUSTRY-UNIVERSITY COOPERATION …, priority 2015, dated 2023):

Legend:
[1] = ABTs assay (ABTs cation scavenging); assay type: biochemical; conditions: 6 minutes, 732 nm
Method: The ABTs assay is similar to the DPPH assay but differs in that antioxidative activity is measured by generating free radicals through chemical reactions. ABTs are reacted with potassium persulfate to generate ABTs […] radicals, which react with H-donors such as phenolic compounds to be converted to colorless ABTs. Accordingly, the degree of antioxidative activity may be determined by measuring the amount of ABTs consumed by reacting with a sample containing a phenolic compound.
ABTs antioxidative activity was measured by partially modified Van den Berg (1999) and others using the discoloration of ABTs radical-specific green color by antioxidants.
Potassium persulfate was added to 7 mM ABTs solution at a final concentration of 2.4 mM. They reacted in the dark for 12 hours to 16 hours at R/T so as to produce ABTs cations. The resulting ABTs cation was diluted to be used, having an absorbance value of 0.7±0.02. […] The absorbance thereof was measured at 732 nm. The radical scavenging activity was calculated from the measured values as follows. […]
Potassium persulfate was added to 7 mM ABTS solution at a final concentration of 2.4 mM. […] The resulting ABTs cation was diluted to be used, having an absorbance value of 0.7±0.02. […] The absorbance thereof was measured at 732 nm. The radical scavenging activity was calculated from the measured values as follows. […]

[2] = Hydroxyl radical scavenging (deoxyribose test); assay type: biochemical; conditions: 37° C. 1 hour, 532 nm
Method: Hydroxyl radicals (—OH) are the most reactive radicals among oxygen radicals, which occur during aerobic metabolism in the human body. These radicals damage peripheral cells to create collateral living body molecules. A deoxyribose test was performed so as to measure the ability to scavenge hydroxyl radicals. Hydroxyl radicals attack deoxyribose to create small fragments. Some of which are pink when added with TBA (thiobarbituric acid) under an acidic pH environment, so the degree of damage by hydroxyl radicals is measured by absorbance at 532 nm.
Experimental methods described in Chandini, Ganesan, and Bhaskar (Chandini, S. K., Ganesan, p., and Bhaskar, N. (2008) In vitro antioxidant activities of three selected brown seaweeds of India. Food Chemistry, 107, 707-713) were modified to be used. […] 1 ml the sample to be measured was mixed with the working solution, and 0.1 ml ascorbic acid (1 mM) is added to form Fe2+−EDTA mixture which is an […] of ferric chloride (FeCl3) and ethylenediamine tetraacetic acid (EDTA). […] The absorbance thereof was measured. […]
Experimental methods described in Chandini, Ganesan, and Bhaskar (Chandini, S. K., Ganesan, p., and Bhaskar, N. (2008) In vitro antioxidant activities of three selected brown seaweeds of India. Food Chemistry, 107, 707-713) were modified to be used. […] The absorbance thereof was measured. […]

[3] = DPPH radical scavenging activity; assay type: biochemical; conditions: DPPH 200 μM, 30 minutes, 517 nm
Method: For the measurement, 100 μl DPPH having a concentration of 200 μM and 100 μl the sample were mixed in a 96-well plate, and they reacted at room temperature for about 30 minutes. Then, the absorbance thereof was measured at 517 nm using a microplate reader. BHT was used as a positive control. The concentration was compared at the same as that of the sample.
DPPH radical scavenging activity was calculated by the method as described below. Radical scavenging activity (%)=(ADPPH−Asample)/ADPPH×100
For the measurement, 100 μl DPPH having a concentration of 200 μM and 100 μl the sample were mixed in a 96-well plate, and they reacted at room temperature for about 30 minutes. Then, the absorbance thereof was measured at 517 nm using a microplate reader. BHT was used as a positive control. The concentration thereof was compared to the same as that of the sample.
DPPH radical scavenging activity was calculated by the method as described below.

661W photoreceptor cells [4] = test: Cell viability of 661W cells under atRAL oxidative stress (MTS); assay type: cell-based, mouse; conditions: 24 hours; for viability at 0.5 µM: Mus musculus, 661W, 0.5 μM compound with atRAL 1.8 μM
Method: In detail, 661W photoreceptor cells were cultured in 96-wells at a concentration of 3×10^3 cells/well and treated with atRAL having a concentration of 1.8 μM (Sigma Aldrich, St. Louis, Mo., USA) for 24 hours. Then, the medium was replaced with medium containing MTS reagent, and they were cultured for 1 hour. The absorbance thereof was measured at 490 nm, and the results were compared to determine cell viability. The cell viability thereof was measured by Celltiter^96 Aqueous One solution assay kit (Promega).

[5] = tested on: malondialdehyde (MDA) production in 661W photoreceptor cells; test: Malondialdehyde (MDA) denatured protein in atRAL-treated 661W cells (MDA immunoblot); assay type: cell-based, mouse; conditions: 2 hours; for expression level of MDA-denatured protein compared with group treated with atRAL only: sargachromenol 0.5 μM, sargahydroquinoic acid 0.5 μM or sargaquinoic acid 1.0 μM, with atRAL 1.8 μM
Method: For reference, the malondialdehyde (MDA) is the result of lipid peroxidation by excessive oxidative stress in cells, and thus the amount of MDA in cells is a factor to measure the degree of oxidative stress.
(§1) In detail, samples of each of Sargassum serratifolium ethanol extract and the compounds separated therefrom were mixed with a specific amount of atRAL (1.8 μM) and Sargassum serratifolium ethanol extract (0.5 μg/mL), sargachromenol (0.5 μM), sargahydroquinoic acid (0.5 μM), or sargaquinoic acid (1.0 μM). The photoreceptor cells were treated with mixtures thereof. Then, they were cultured for 2 hours. The cells were then washed with PBS and the intracellular proteins were recovered. The number of proteins denatured by the lipid peroxides in cells was analyzed by protein immunoassay using MDA immunoblot kit (Cell biolabs).
as §1, with “acid (0.5 μM) or sargaquinoic” for “acid (0.5 μM), or sargaquinoic”, “treated with mixtures. Then, they” for “treated with mixtures thereof. Then, they”

[6] = tested on: reactive oxygen species in 661W photoreceptor cells; test: Reactive oxygen species in atRAL-treated 661W cells (DCFH-DA, flow cytometry); assay type: cell-based, mouse; conditions: 30 minutes
Method: For reference, 2′,7′-dichlorodihydrofluorescein diacetate (DCFH-DA) converts to DCF, which expresses fluorescence in response to oxidative stress in cells. Therefore, the expression of DCF in cells is used as an indicator of the degree of oxidative stress.
In order to examine the antioxidative effect of the Sargassum serratifolium ethanol extract and the compounds separated therefrom of the present invention, atRAL (1.8 μM) and Sargassum serratifolium ethanol extract (0.5 μg/mL), sargachromenol (0.5 μM), sargahydroquinoic acid (0.5 μM), or sargaquinoic acid (1.0 μM) were added to medium mixed with DCFH-DA (20 μM), and the photoreceptor cells were treated with them and cultured for 30 minutes. Then, the cells were washed with PBS, and the cells were recovered. The cells expressing the fluorescence were measured using flow cytometry.
In order to examine the antioxidative effect of the Sargassum serratifolium ethanol extract and the compounds separated therefrom of the present invention, atRAL (1.8 μM) and Sargassum serratifolium ethanol extract (0.5 μg/mL), sargachromenol (0.5 μM), sargahydroquinoic acid (0.5 μM) or sargaquinoic acid (1.0 μM) were added to medium mixed with DCFH-DA (20 μM), and the photoreceptor cells were treated with them and cultured for 30 minutes. Then, the cells were washed with PBS, and the cells were recovered. The cells expressing the fluorescence were measured using flow cytometry.

661W photoreceptor cells [7] = test: Cytotoxicity on 661W photoreceptor cells (MTS); assay type: cell-based, mouse; conditions: 661W cells, separated compounds
Method: (§2) 661W photoreceptor cells were cultured in 96-wells at a concentration of 3×10^3 cells/well. Then, they were treated with 1.0 μg/ml Sargassum serratifolium ethanol extract or compounds separated therefrom (sargahydroquinoic acid (SHQ), sargachromenol (SCM), and sargaquinoic acid (SQA)) at a concentration of 1.0 μM and cultured for 24 hours. Then, the medium was replaced with medium containing MTS reagent. Then, they were cultured for 1 hour. Cell viability was measured by measuring the absorbance at 490 nm and comparing the results. The cell viability thereof was analyzed by Celltiter^96 Aqueous One solution assay kit (Promega).
as §2, with “viability” for “viability thereof”

[8] = compound 0.5 μM and atRAL 1.8 μM

## Cc1cc(C(C)(C)C)c(O)c(C(C)(C)C)c1 [BHT]
[1]
  ABTs (IC50, μg/ml): 7.77 ± 0.74 µg/mL
[2]
  OH radical (IC50, μg/ml): 1.675 ± 0.21 µg/mL
[3]
  DPPH (IC50, μg/ml): 11.18 ± 0.15 µg/mL

## CC1=C(/C=C/C(C)=C/C=C/C(C)=C/C=O)C(C)(C)CCC1 [atRAL, all-trans-retinal, reference compound]
661W photoreceptor cells [4]; atRAL 1.8 μM alone
  cell viability reduced in the only atRAL-treated group: about 55%
[5]; atRAL 1.8 μM only
  expression level of protein denatured by MDA compared with the control: increased
[6]; atRAL 1.8 μM only
  fluorescence expression level (DCF) higher than that of the control group: about 80%

## CC(C)=CCC/C(=C/CC/C(C)=C/CCC1(C)C=Cc2cc(O)cc(C)c2O1)C(=O)O (stereo not drawn) [sargachromenol]
661W photoreceptor cells [4]
  viability at 0.5 µM: > 90%
[5]
  expression level of MDA-denatured protein compared with group treated with atRAL only: effectively reduced
[6]; [8]
  fluorescence expression level (DCF) reduced compared to group treated with atRAL only: 76%
[6]; compound 0.5 μM and atRAL 1.8 μM, listed as SCM
  fluorescence expression level (DCF) reduced compared to group treated with atRAL only: ~77%

## CC(C)=CCC/C(=C/CC/C(C)=C/CC/C(C)=C/Cc1cc(O)cc(C)c1O)C(=O)O [sargahydroquinoic acid]
661W photoreceptor cells [4]
  viability at 0.5 µM: > 90%
[5]
  expression level of MDA-denatured protein compared with group treated with atRAL only: effectively reduced
[6]; [8]
  fluorescence expression level (DCF) reduced compared to group treated with atRAL only: 77%
[6]; compound 0.5 μM and atRAL 1.8 μM, listed as SHQ
  fluorescence expression level (DCF) reduced compared to group treated with atRAL only: about 76%

## CC(C)=CCC/C(=C/CC/C(C)=C/CC/C(C)=C/CC1=CC(=O)C=C(C)C1=O)C(=O)O [sargaquinoic acid]
661W photoreceptor cells [4]
  viability at 0.5 µM: > 90%
[5]
  expression level of MDA-denatured protein compared with group treated with atRAL only: effectively reduced
661W photoreceptor cells [7]
  concentration up to which there was no cytotoxicity: ≤ 1000 nM
[6]; compound 1.0 μM and atRAL 1.8 μM
  fluorescence expression level (DCF) reduced compared to group treated with atRAL only: 73%
